By IC50 is commonly meant the point on the concentration scale where inhibition reaches its midpoint.

Type in all cases: cell-based
Experiment [1] addresses T1, Human LBAT (Homo sapiens, UniProt Q14973).
T1 construct: expressed in transfected cells; kept under Geneticin selection
T1 sequence (Q14973 1-349): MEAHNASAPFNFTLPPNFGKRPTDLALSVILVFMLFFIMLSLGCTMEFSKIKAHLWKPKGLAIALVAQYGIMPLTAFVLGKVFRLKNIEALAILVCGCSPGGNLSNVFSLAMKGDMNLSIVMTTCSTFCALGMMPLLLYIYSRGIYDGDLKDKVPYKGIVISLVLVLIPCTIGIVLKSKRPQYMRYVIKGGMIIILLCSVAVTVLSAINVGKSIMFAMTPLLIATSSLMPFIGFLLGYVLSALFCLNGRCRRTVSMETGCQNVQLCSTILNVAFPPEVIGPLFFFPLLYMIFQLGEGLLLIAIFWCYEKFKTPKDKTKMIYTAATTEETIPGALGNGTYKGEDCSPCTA
The experiment can be described thus: LBAT (h/m) assay: 3H-taurocholic acid uptake in human LBAT-overexpressing cells. The conditions noted are these: 0.3 μM 3H-taurocholic acid and 7.5 μM cold taurocholic acid, 20 minutes, read-out: hLBAT IC50. In outline: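 LBAT-overexpressing cells, serum-free MEM-alpha, 20 min at 37° C with inhibitor (3-fold, 10-point) plus 0.3 μM 3H-taurocholic acid and cold taurocholic acid (7.5 μM human; 25 μM mouse), 0.2% DMSO. Stopped on ice, washed with 1 mM unlabelled taurocholate; uptake by scintillation counting.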

Experiment [2] concerns HepaRG cells. The experiment can be described thus: HepaRG-based assay: 3H-taurocholic acid uptake in differentiated HepaRG cells. As to conditions: 0.3 μM 3H-taurocholic acid and 7.5 μM cold taurocholic acid, 30 minutes. In outline: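 Differentiated HepaRG cells cultured 7 days post-seeding were exposed for 30 min at 37 °C to 0.3 μM 3H-taurocholic acid plus 7.5 μM cold taurocholic acid with inhibitor (3-fold dilutions, 0.2% DMSO). Uptake was stopped on ice, washed with 1 mM unlabelled taurocholic acid, and counted by scintillation.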

The target of experiment [3] is T2, Human ASBT (Homo sapiens, UniProt Q12908).
T2 construct: expressed in transfected cells; kept under Puromycin selection
T2 sequence (Q12908 1-348): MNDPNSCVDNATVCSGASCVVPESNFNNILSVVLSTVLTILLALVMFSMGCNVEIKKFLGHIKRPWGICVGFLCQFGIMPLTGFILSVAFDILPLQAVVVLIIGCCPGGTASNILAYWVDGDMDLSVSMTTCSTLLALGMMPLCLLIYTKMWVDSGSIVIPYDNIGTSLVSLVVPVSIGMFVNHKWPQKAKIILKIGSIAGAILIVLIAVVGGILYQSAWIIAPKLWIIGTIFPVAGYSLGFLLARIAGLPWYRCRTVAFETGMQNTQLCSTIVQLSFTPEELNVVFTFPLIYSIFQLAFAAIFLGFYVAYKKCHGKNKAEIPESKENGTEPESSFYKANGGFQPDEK
The experiment can be described thus: ASBT (h/m) assay: 3H-taurocholic acid uptake in human ASBT-overexpressing cells. As to conditions: 0.25 μM 3H-taurocholic acid and 5 μM cold taurocholic acid, 20 minutes, read-out: hASBT IC50. In outline: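 ASBT-overexpressing cells, seeded 48 h earlier, took up 0.25 µM 3H-taurocholic acid plus 5 µM cold taurocholate for 20 min at 37 °C with inhibitor (10-point 3-fold series, top 10 µM, 0.2% DMSO). Ice stop, washes with cold 1 mM taurocholate in HEPES-HBSS pH 7.4, scintillation counting.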

As for `CCCCC1(CC)CN(c2ccccc2)c2cc(I)c(O/C=C/C(=O)O)cc2S(=O)(=O)C1` (single isomer, unassigned) [Example 58, (E)-3-((3-butyl-3-ethyl-7-iodo-1,1-dioxido-5-phenyl-2,3,4,5-tetrahydro-1,5-benzothiazepin-8-yl)oxy)acrylic acid], the IC50 in experiment [1] is 84 nM; in experiment [2], 1500 nM; in experiment [3] it was 24 nM.
In the case of `CCCC[C@]1(CC)CN(c2ccccc2)c2cc(Br)c(O/C=C(\F)C(=O)O)cc2S(=O)(=O)C1` (single isomer, unassigned) [Example 64], the IC50 stood at 28 nM in experiment [1]; 455 nM in experiment [2] (Homo sapiens, HepaRG); 524 nM in experiment [3].
The like results for `CCCC[C@@]1(CC)CN(c2ccccc2)c2cc(Br)c(O/C=C(\F)C(=O)O)cc2S(=O)(=O)C1` (single isomer, unassigned) [Example 65] were, in that order, 20 nM, 265 nM and 27 nM.
In the same order, the values of `CCCC[C@@]1(CC)CN(c2ccccc2)c2cc(SC)c(O/C=C/C(=O)O)cc2S(=O)(=O)N1` (single isomer, unassigned) [Example 77] are 297 nM, 5330 nM and 24 nM.
The like results for `CCCC[C@@]1(CC)CN(c2ccccc2)c2cc(SC)c(O/C=C(\F)C(=O)O)cc2S(=O)(=O)N1` (single isomer, unassigned) [Example 85] were, in that order, 71 nM, 1110 nM and 7 nM.
With `CCCC[C@]1(CC)CN(c2ccccc2)c2cc(SC)c(O/C=C(\F)C(=O)O)cc2S(=O)(=O)N1` (single isomer, unassigned) [Example 86], the IC50 amounted to 31 nM in experiment [1]; 527 nM in experiment [2] (Homo sapiens, HepaRG); 88 nM in experiment [3].
The like results for `CCCC[C@]1(CC)CN(c2ccccc2)c2cc(SC)c(O/C=C(\F)C(=O)O)cc2S(=O)(=O)N1C` (single isomer, unassigned) [Example 100] were, in that order, 49 nM, 1450 nM and 631 nM.
For `CCCC[C@@]1(CC)CN(c2ccccc2)c2cc(N(C)C)c(O/C=C(\F)C(=O)O)cc2S(=O)(=O)C1` (single isomer, unassigned) [Example 109], the IC50 in experiment [1] is 68 nM; in experiment [2] (Homo sapiens, HepaRG) it was more than 2220 nM; in experiment [3], 6.5 nM.
As for `CCCCC1(CCCC)CN(c2ccc(N)cc2)c2cc(SC)c(O/C=C/C(=O)O)cc2S(=O)(=O)C1` [Example 2, (E)-3-((5-(4-aminophenyl)-3,3-dibutyl-7-(methylthio)-1,1-dioxido-2,3,4,5-tetrahydro-1,5-benzothiazepin-8-yl)oxy)acrylic Acid], the IC50 in experiment [1] is 1400 nM; in experiment [2] (Homo sapiens, HepaRG), more than 6670 nM; in experiment [3], 354 nM.
The like results for `CCCCC1(CCCC)CN(c2ccc(NC(=O)OC(C)(C)C)cc2)c2cc(SC)c(O/C=C/C(=O)O)cc2S(=O)(=O)C1` [Example 3, (E)-3-((5-(4-((tert-butoxycarbonyl)amino)phenyl)-3,3-dibutyl-7-(methylthio)-1,1-dioxido-2,3,4,5-tetrahydro-1,5-benzothiazepin-8-yl)oxy)acrylic Acid] were, in that order, 177 nM, 885 nM and more than 10000 nM.
As to `CCCCC1(CCCC)CN(c2ccccc2)c2cc(C3CC3)c(O/C=C/C(=O)O)cc2S(=O)(=O)C1` [Example 7, (E)-3-((3,3-dibutyl-7-cyclopropyl-1,1-dioxido-5-phenyl-2,3,4,5-tetrahydro-1,5-benzothiazepin-8-yl)oxy)acrylic Acid], the IC50 in experiment [1] came out at 749 nM; in experiment [2] (Homo sapiens, HepaRG), 3190 nM; in experiment [3] it was 217 nM.
For `CCCCC1(CCCC)CN(c2ccc(NS(=O)(=O)C3CC3)cc2)c2cc(SC)c(O/C=C/C(=O)O)cc2S(=O)(=O)C1` [Example 9, (E)-3-((3,3-dibutyl-5-(4-(cyclopropanesulfonamido)phenyl)-7-(methylthio)-1,1-dioxido-2,3,4,5-tetrahydro-1,5-benzothiazepin-8-yl)oxy)acrylic Acid], the IC50 was found to be 1090 nM in experiment [1]; 3080 nM in experiment [2] (Homo sapiens, HepaRG); 1200 nM in experiment [3].
In the same order, the values of `CCCCC1(CCCC)CN(c2ccc(NS(C)(=O)=O)cc2)c2cc(SC)c(O/C=C/C(=O)O)cc2S(=O)(=O)C1` [Example 10, (E)-3-((3,3-dibutyl-5-(4-(methylsulfonamido)phenyl)-7-(methylthio)-1,1-dioxido-2,3,4,5-tetrahydro-1,5-benzothiazepin-8-yl)oxy)acrylic Acid] are 3980 nM, 4700 nM and 1410 nM.
The like results for `CCCCC1(CCCC)CN(c2ccccc2)c2cc(CC)c(O/C=C/C(=O)O)cc2S(=O)(=O)C1` [Example 12, (E)-3-((3,3-dibutyl-7-ethyl-1,1-dioxido-5-phenyl-2,3,4,5-tetrahydro-1,5-benzothiazepin-8-yl)oxy)acrylic Acid] were, in that order, 393 nM, 2610 nM and 482 nM.
In the same order, the values of `CCCCC1(CC)CN(c2ccccc2)c2cc(OC)c(O/C=C/C(=O)O)cc2S(=O)(=O)C1` (stereo not drawn) [Example 13, (E)-3-((3-butyl-3-ethyl-7-methoxy-1,1-dioxido-5-phenyl-2,3,4,5-tetrahydro-1,5-benzothiazepin-8-yl)oxy)acrylic Acid] are 991 nM, 4460 nM and 144 nM.
Regarding `CCCCC1(CCCC)CN(c2ccccc2)c2cc(OC)c(O/C=C/C(=O)O)cc2S(=O)(=O)C1` [Example 14, (E)-3-((3,3-dibutyl-7-methoxy-1,1-dioxido-5-phenyl-2,3,4,5-tetrahydro-1,5-benzothiazepin-8-yl)oxy)acrylic Acid], the IC50 is 1430 nM in experiment [1]; 5160 nM in experiment [2] (Homo sapiens, HepaRG); 304 nM in experiment [3].
In the same order, the values of `CCCCC1(CCCC)CN(c2ccc(Br)cc2)c2cc(SC)c(O/C=C/C(=O)O)cc2S(=O)(=O)C1` [Example 15, (E)-3-((5-(4-bromophenyl)-3,3-dibutyl-7-(methylthio)-1,1-dioxido-2,3,4,5-tetrahydro-1,5-benzothiazepin-8-yl)oxy)acrylic Acid] are 532 nM, 2250 nM and 253 nM.
In the same order, the values of `CCCCC1(CCCC)CN(c2ccc(OC)cc2)c2cc(SC)c(O/C=C/C(=O)O)cc2S(=O)(=O)C1` [Example 19, (E)-3-((3,3-dibutyl-5-(4-methoxyphenyl)-7-(methylthio)-1,1-dioxido-2,3,4,5-tetrahydro-1,5-benzothiazepin-8-yl)oxy)acrylic Acid] are 783 nM, 2890 nM and 128 nM.
Consider `CCCCC1(CC)CN(c2ccccc2)c2ccc(O/C=C/C(=O)O)cc2S(=O)(=O)C1` (stereo not drawn) [Example 21, (E)-3-((3-butyl-3-ethyl-1,1-dioxido-5-phenyl-2,3,4,5-tetrahydro-1,5-benzothiazepin-8-yl)oxy)acrylic Acid], for which the IC50 in experiment [1] was 4150 nM; in experiment [2] (Homo sapiens, HepaRG) it was 5230 nM; in experiment [3], 929 nM.
For the compound `CCCCC1(CCCC)CN(c2ccc(NC(=O)OC)cc2)c2cc(SC)c(O/C=C/C(=O)O)cc2S(=O)(=O)C1` [Example 24, (E)-3-((3,3-dibutyl-5-(4-((methoxycarbonyl)amino)phenyl)-7-(methylthio)-1,1-dioxido-2,3,4,5-tetrahydro-1,5-benzothiazepin-8-yl)oxy)acrylic Acid], the IC50 in experiment [1] worked out at 225 nM; in experiment [2] (Homo sapiens, HepaRG), 2280 nM; in experiment [3] it was 4670 nM.
In the same order, the values of `CCCCC1(CCCC)CN(c2ccc(N(C)C)cc2)c2cc(SC)c(O/C=C/C(=O)O)cc2S(=O)(=O)C1` [Example 25, (E)-3-((3,3-dibutyl-5-(4-(dimethylamino)phenyl)-7-(methylthio)-1,1-dioxido-2,3,4,5-tetrahydro-1,5-benzothiazepin-8-yl)oxy)acrylic Acid] are 351 nM, 3310 nM and 370 nM.
